Structures are written as SMILES. A value given as a limit tells only on which side of the number the result lay.

The target of data set [1] is Acetylcholinesterase (Electrophorus electricus, UniProt O42275). The experiment in a line: Inhibition of electric eel acetylcholinesterase using acetylthiocholine iodide as substrate after 15 mins by Ellman's method. A general note: In Ellman's method for cholinesterases, released thiocholine reacts with DTNB.
The target in data set [2] is Cholinesterase (Equus caballus, UniProt P81908). Put plainly: Inhibition of equine serum butylcholinesterase using acetylthiocholine iodide as substrate after 15 mins by Ellman's method.
Cholinesterase, sequence (P81908 whole entry): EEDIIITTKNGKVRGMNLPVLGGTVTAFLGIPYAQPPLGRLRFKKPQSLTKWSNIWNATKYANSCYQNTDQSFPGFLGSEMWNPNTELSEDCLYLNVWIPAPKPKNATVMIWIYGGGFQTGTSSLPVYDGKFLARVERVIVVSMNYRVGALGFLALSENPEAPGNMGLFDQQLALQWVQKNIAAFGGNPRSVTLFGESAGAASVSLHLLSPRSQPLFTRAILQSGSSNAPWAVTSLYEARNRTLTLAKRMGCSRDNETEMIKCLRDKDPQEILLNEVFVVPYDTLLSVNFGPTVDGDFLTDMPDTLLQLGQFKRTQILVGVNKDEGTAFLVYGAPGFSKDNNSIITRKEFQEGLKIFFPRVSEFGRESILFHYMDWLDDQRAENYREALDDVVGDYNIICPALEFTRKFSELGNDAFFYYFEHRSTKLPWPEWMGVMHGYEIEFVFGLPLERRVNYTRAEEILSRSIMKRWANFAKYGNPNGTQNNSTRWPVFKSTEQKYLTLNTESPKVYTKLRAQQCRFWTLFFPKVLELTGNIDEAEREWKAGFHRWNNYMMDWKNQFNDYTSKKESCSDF
Data set [3] in a line: Antioxidant activity assessed as DPPH radical scavenging activity at 700 ug/ml incubated in dark condition measured after 30 mins by UV/vis spectrophotometric analysis relative to control. It counts as physicochemical. Particulars: 0.5 h. For orientation: DPPH is a stable violet radical that fades when it is reduced.
Data set [4] can be described thus: Antioxidant activity assessed as DPPH radical scavenging activity incubated in dark condition measured after 30 mins by UV/vis spectrophotometric analysis. It counts as physicochemical.

Acetylcholinesterase, sequence (O42275 whole entry): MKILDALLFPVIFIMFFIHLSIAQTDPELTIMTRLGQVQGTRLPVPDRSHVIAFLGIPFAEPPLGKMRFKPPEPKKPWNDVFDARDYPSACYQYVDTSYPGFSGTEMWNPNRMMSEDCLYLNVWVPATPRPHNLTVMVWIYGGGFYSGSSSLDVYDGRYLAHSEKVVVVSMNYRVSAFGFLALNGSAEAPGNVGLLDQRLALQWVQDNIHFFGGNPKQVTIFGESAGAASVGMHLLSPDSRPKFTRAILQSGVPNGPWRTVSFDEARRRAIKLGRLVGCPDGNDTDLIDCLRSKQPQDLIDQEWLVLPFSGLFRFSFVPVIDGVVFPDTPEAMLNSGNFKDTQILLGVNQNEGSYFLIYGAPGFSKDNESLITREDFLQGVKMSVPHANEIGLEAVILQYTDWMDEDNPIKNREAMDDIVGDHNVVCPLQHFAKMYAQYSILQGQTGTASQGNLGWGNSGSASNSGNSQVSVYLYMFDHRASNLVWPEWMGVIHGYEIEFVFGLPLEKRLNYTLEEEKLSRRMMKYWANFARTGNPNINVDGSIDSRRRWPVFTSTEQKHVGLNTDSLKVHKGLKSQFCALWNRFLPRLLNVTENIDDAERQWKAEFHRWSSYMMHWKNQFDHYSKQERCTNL

By IC50 is commonly meant the concentration that gives 50% inhibition. The low end stands for greater potency, the high end for weaker potency. Consider `O=c1c2ccccc2n(Cc2cn(Cc3ccc(Cl)cc3)nn2)c2ccc(Br)cc12`, for which the results for the IC50 in data set [1] and in data set [2] were 45.6 µM and at least 100 µM, respectively.

As to `COc1ccc2c(c1)c(=O)c1ccccc1n2Cc1cn(Cc2ccc(Cl)cc2)nn1`, the IC50 is 7.31 µM in data set [1] and at least 100 µM in data set [2].

As for `O=c1c2ccccc2n(Cc2cn(Cc3ccc(Cl)cc3)nn2)c2ccc(Cl)cc12`, the IC50 in data set [1] was 17.7 µM; in data set [2], at least 100 µM.

For `O=c1c2ccccc2n(Cc2cn(Cc3ccc(Cl)cc3)nn2)c2c(F)cccc12`, the figures for the IC50 in data set [1] and in data set [2] were 24.5 µM and at least 100 µM, respectively.

Regarding `O=c1c2ccccc2n(Cc2cn(Cc3ccccc3)nn2)c2ccccc12`, the IC50 in data set [1] and in data set [2] was at least 100 µM in each case.

In general, EC50 refers to the concentration needed to bring the measured effect to its halfway point. For the molecule `O=c1c2ccccc2n(Cc2cn(Cc3ccc(Cl)cc3)nn2)c2ccccc12`, the IC50 in data set [1] is 59.7 µM; in data set [2] it was at least 100 µM. In data set [3], the “inhibition (INH)” value was determined as 21.78%. In addition, in data set [4], the EC50 is above 333 µg/mL.

`O=c1c2ccccc2n(Cc2cn(Cc3ccccc3)nn2)c2ccc(Br)cc12`: the IC50 in data set [1] was 68.1 µM; in data set [2] it was at least 100 µM.

On to `O=c1c2ccccc2n(Cc2cn(Cc3ccccc3)nn2)c2c(F)cccc12`, for which the IC50 in data set [1] and in data set [2] was at least 100 µM each time. Moreover, the “inhibition (INH)” value in data set [3] is reported as 14.79%. In addition, the EC50 in data set [4] is above 700 µg/mL.

On to `O=c1c2ccccc2n(Cc2cn(Cc3ccc([N+](=O)[O-])cc3)nn2)c2ccc(Br)cc12`, for which the IC50 in data set [1] was 52.8 µM; in data set [2], at least 100 µM.

On to `O=c1c2ccccc2n(Cc2cn(Cc3ccc([N+](=O)[O-])cc3)nn2)c2ccc(Cl)cc12`, for which the IC50 in data set [1] was 38.3 µM; in data set [2] it was at least 100 µM.

With `Cc1ccc2c(c1)c(=O)c1ccccc1n2Cc1cn(Cc2ccc(Cl)cc2)nn1`, the results for the IC50 in data set [1] and in data set [2] were 10.8 µM and 87.2 µM, respectively.

As to `Cc1ccc2c(c1)c(=O)c1ccccc1n2Cc1cn(Cc2ccccc2)nn1`, the IC50 in data set [1] and in data set [2] was at least 100 µM throughout. The “inhibition (INH)” value in data set [3] worked out at 7.09%. For the same molecule, the 50% effective concentration (EC50) in data set [4] was above 333 µg/mL.

For the molecule `COc1ccc2c(c1)c(=O)c1ccccc1n2Cc1cn(Cc2ccccc2)nn1`, the IC50 in data set [1] was 24 µM; in data set [2], at least 100 µM. The “inhibition (INH)” value in data set [3] is on record as 8.65%. Besides, in data set [4], the EC50 is above 700 µg/mL.

On to `O=c1c2ccccc2n(Cc2cn(Cc3ccccc3)nn2)c2ccc(Cl)cc12`, for which the IC50 in data set [1] was 88.1 µM; in data set [2], at least 100 µM. For the same molecule, in data set [3], the “inhibition (INH)” value was 26.6%. For the same molecule, the EC50 in data set [4] was above 700 µg/mL.

These data come from ChEMBL document CHEMBL3407370, “Potent acetylcholinesterase inhibitors: design, synthesis, biological evaluation, and docking study of acridone linked to 1,2,3-triazole derivatives” (Eur J Med Chem, 2015).
